# Data: patent publication US20060094722A1 (Eisai Co., Ltd., priority 2002, published 2006)
# Structures can show the parent of a compound that is named as a salt. Where two headings read alike, the source gives them in different places.
# What was measured:
# [1] = test system: DPPIV-deficient male Fisher rats
# Protocol: Animals: DPPIV-deficient male Fisher rats (purchased from Charles River Japan, Inc.)
# Each test compound was suspended in a solution of 0.5% methyl cellulose at the doses indicated in Table 2, and then administered orally at a volume of 5 mL/kg. The vehicle control group was orally administered a solution of 0.5% methyl cellulose at a volume of 5 mL/kg.
# An unanesthetized rat was lightly cut at the caudal vein with a razor blade and bled immediately before, and at 1, 3, and 5 hours after the administration of a test compound or a solution of 0.5% methyl cellulose. 250 μL of blood was collected from the rat using a heparinized capillary and transferred into a centrifugation tube. The supernatant obtained by centrifugation (at 10000 g at 4° C. for 2 minutes) was assayed for GLP-1 level using Active GLP-1 ELISA kit (Linco).
# [2] = test system: DPPIV-intact normal male Fisher rats; test: Influences of metformin and DPPIV inhibitors (Examples 82, 119, 120, 122, 229, 267), singly or in combination, on GLP-1 level in normal rats; format: in vivo, rat; conditions: 3 hours
# Protocol: Animals: DPPIV-Intact Normal Male Fisher Rats (Purchased from CLEA Japan, Inc.)
# 250 μL of blood was collected from the rat using a heparinized capillary and transferred into a centrifugation tube.
# [3] = biological target: T1, DPPIV obtained from swine kidney (Sus scrofa, UniProt P22411); test: Assay for the DPPIV-inhibiting activity; format: biochemical; conditions: DPPIV 10 mU/mL, Gly-Pro-p-nitroanilide 0.33 mM, absorbance 405 nm
# T1 construct: DPPIV obtained from swine kidney; from tissue; host or cells: swine kidney
# Protocol: DPPIV obtained from swine kidney was dissolved in a reaction buffer (50 mM Tris-HCl (pH 7.4)/0.1% BSA) at a fmal concentration of 10 mU/mL. A 110 μL aliquot of this enzyme solution was added to the reaction system, and then 15 μL of an agent was added. The reaction solution was incubated at room temperature for 20 minutes. 25 μL of a solution containing 2 mM Gly-Pro-p-nitroanilide was added to the reaction solution (at the final concentration of 0.33 mM) to start the enzyme reaction. The reaction time was 20 minutes. 25 μL of 1N phosphate solution was added to stop the reaction. […] The degree of inhibition to the enzyme reaction was determined, and IC50 was computed based on the absorbance.
# Zucker fa/fa rats [4] = conditions: for Blood glucose level at each time point (hr) after oral glucose administration / GLP-1 concentration at each time point (hr) after oral glucose administration (% of Pre) / Insulin concentration at each time point (hr) after oral glucose administration: 30 mg/kg p.o. 0.5 hour before glucose load
# Protocol: (§1) Animals: Zucker fa/fa Rats, an Animal Model for TypeII Diabetes (Purchased from Charles River Japan, Inc.)
# (§2) Each test compound was dissolved in distilled water at the doses shown in the Tables indicated below, and then administered orally at a volume of 5 mL/kg. The vehicle control group was orally administered distilled water at a volume of 5 mL/kg. […] The rats were tested for glucose tolerance on the first day of the administration series. In the test, distilled water and the test compounds were given 0.5 hour before glucose load.
# For the glucose tolerance test, an unanesthetized rat was lightly cut at the caudal vein with a razor blade and bled immediately before the administration of a test compound or distilled water, and immediately before, and at 0.5, 1, 2, and 3 hours after glucose load. 250 μL of blood was collected from the rat using a heparinized capillary and transferred into a centrifugation tube. The supernatant obtained by centrifugation (at 10000 g at 4° C. for 2 minutes) was assayed for active GLP-1 level using Active GLP-1 ELISA kit (Linco). At the same time, 10 μL of blood was collected and mixed with 140 μL of a 0.6 M perchloric acid solution. The mixture was centrifuged (at 3000 g at 4° C. for 10 minutes), and the resulting supernatant was assayed for glucose using Glucose Test Wako II (Wako Pure Chemical Industries, Inc.). The level of blood glucose alone was determined at the time of measurement 3 hours after glucose load.
# [5] = test system: DPPIV-intact normal male Fisher rats; conditions: 30 mg/kg p.o.
# Protocol: Each test compound was suspended in a solution of 0.5% methyl cellulose at the doses indicated in Table 3, and then administered orally at a volume of 5 mL/kg. The vehicle control group was orally administered a solution of 0.5% methyl cellulose at a volume of 5 mL/kg.
# An unanesthetized rat was lightly cut at the caudal vein with a razor blade and bled immediately before, and at 1, 3, and 5 hours after administration of a test compound or a solution of 0.5% methyl cellulose. 250 μL of blood was collected from the rat using a heparinized capillary and transferred into a centrifugation tube. The supernatant obtained by centrifugation (at 10000 g at 4° C. for 2 minutes) was assayed for GLP-1 level using Active GLP-1 ELISA kit (Linco).
# Zucker fa/fa rats [6] = conditions: 30 mg/kg p.o. twice daily for 14 days
# Protocol: as §1, §2
# Food intake and body weight were determined at 4:00 p.m after the 14-day administration series. Total food intake and weight gain over 14 days were determined for each experimental group.
# Protocol for BALB/c AnCrj mice: Animals: BALB/c AnCrj Mice (Purchased from Charles River Japan, Inc.)
# 5-FU (purchased from Sigma) was suspended in a solution of 0.5% methyl cellulose, and then administered orally at a volume of 10 mL/kg/day (8 a.m. to 9 a.m.) for 3 days (60 mg/kg). […] The vehicle control group was orally administered a solution of 0.5% methyl cellulose at a volume of 10 mL/kg.
# Mice were fasted for 18 hours following the afternoon administration on the third day of the administration series. On the following day, the mice were killed by cervical dislocation, and then the whole small intestine was excised and the wet weight was measured.
# T1 sequence (P22411 whole entry): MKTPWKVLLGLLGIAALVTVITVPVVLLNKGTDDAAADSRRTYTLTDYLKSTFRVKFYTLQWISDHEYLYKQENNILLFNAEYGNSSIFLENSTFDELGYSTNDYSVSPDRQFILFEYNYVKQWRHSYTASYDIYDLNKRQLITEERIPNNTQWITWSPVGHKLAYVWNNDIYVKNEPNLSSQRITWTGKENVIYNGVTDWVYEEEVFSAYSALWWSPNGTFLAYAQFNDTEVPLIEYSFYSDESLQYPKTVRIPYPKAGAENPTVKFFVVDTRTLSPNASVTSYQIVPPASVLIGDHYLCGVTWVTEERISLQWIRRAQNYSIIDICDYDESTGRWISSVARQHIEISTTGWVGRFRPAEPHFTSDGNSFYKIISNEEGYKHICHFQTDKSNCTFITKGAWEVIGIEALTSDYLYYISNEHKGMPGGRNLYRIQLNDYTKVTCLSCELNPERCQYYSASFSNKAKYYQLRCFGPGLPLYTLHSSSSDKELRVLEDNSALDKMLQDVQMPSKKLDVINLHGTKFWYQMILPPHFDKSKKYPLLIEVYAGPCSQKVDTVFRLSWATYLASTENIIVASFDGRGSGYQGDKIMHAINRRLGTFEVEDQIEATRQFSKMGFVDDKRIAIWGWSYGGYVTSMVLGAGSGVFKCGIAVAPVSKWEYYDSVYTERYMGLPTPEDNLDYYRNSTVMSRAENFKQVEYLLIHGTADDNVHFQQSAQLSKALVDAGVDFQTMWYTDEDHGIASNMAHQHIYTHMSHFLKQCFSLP
compound,measurement,setting,value
"CCCCNC(=N)NC(=N)N [Buformin, buformin]",GLP-1 concentration at each time point (hr) after oral administration (% of Pre),"[1]; 30 mg/kg p.o., 0 hr",100 ± 0.0 % of Pre
same,GLP-1 concentration at each time point (hr) after oral administration (% of Pre),"[1]; 30 mg/kg p.o., 1 hr",118.7 ± 9.3 % of Pre
same,GLP-1 concentration at each time point (hr) after oral administration (% of Pre),"[1]; 30 mg/kg p.o., 3 hr",122.7 ± 7.1 % of Pre
same,GLP-1 concentration at each time point (hr) after oral administration (% of Pre),"[1]; 30 mg/kg p.o., 5 hr",114.6 ± 4.4 % of Pre
same,GLP-1 concentration at each time point (hr) after oral administration (% of Pre),"[1]; 100 mg/kg p.o., 0 hr",100 ± 0.0 % of Pre
same,GLP-1 concentration at each time point (hr) after oral administration (% of Pre),"[1]; 100 mg/kg p.o., 1 hr",163.6 ± 19.6 % of Pre
same,GLP-1 concentration at each time point (hr) after oral administration (% of Pre),"[1]; 100 mg/kg p.o., 1 hr, listed as buformin",significantly elevated
same,GLP-1 concentration at each time point (hr) after oral administration (% of Pre),"[1]; 100 mg/kg p.o., 3 hr",171.2 ± 9.1 % of Pre
same,GLP-1 concentration at each time point (hr) after oral administration (% of Pre),"[1]; 100 mg/kg p.o., 5 hr",195.8 ± 36.6 % of Pre
same,GLP-1 concentration at each time point (hr) after oral administration (% of Pre),"[1]; 100 mg/kg p.o., 5 hr, listed as buformin",significantly elevated
"CC#CCn1c(N2CCNCC2)nc2cnn(Cc3ccccc3C#N)c(=O)c21.O=C(O)C(F)(F)F [Example 267, 2-[3-(2-Butynyl)-4-oxo-2-(piperazin-1-yl)-3,4-dihydroimidazo[4,5-d]pyridazin-5-ylmethyl]benzonitrile trifluoroacetate]",GLP-1 concentration 3 hours after oral administration (% of Pre),[2]; 10 mg/kg p.o.,110.0 ± 9.0 % of Pre
"CC#CCn1c(N2CCNCC2)nc2nc(C#N)n(C)c(=O)c21.O=C(O)C(F)(F)F [Example 82, 7-(2-Butynyl)-2-cyano-1-methyl-8-(piperazin-1-yl)-1,7-dihydropurin-6-one trifluoroacetate]",GLP-1 concentration 3 hours after oral administration (% of Pre),[2]; 20 mg/kg p.o.,97.3 ± 2.1 % of Pre
"[H]/N=C(/N)N/C(=N/[H])NCCc1ccccc1 [Phenformin, phenformin]",GLP-1 concentration at each time point (hr) after oral administration (% of Pre),"[1]; 30 mg/kg p.o., 0 hr",100 ± 0.0 % of Pre
same,GLP-1 concentration at each time point (hr) after oral administration (% of Pre),"[1]; 30 mg/kg p.o., 1 hr",125.3 ± 10.7 % of Pre
same,GLP-1 concentration at each time point (hr) after oral administration (% of Pre),"[1]; 30 mg/kg p.o., 3 hr",120.0 ± 7.2 % of Pre
same,GLP-1 concentration at each time point (hr) after oral administration (% of Pre),"[1]; 30 mg/kg p.o., 5 hr",126.7 ± 10.7 % of Pre
same,GLP-1 concentration at each time point (hr) after oral administration (% of Pre),"[1]; 100 mg/kg p.o., 0 hr",100 ± 0.0 % of Pre
same,GLP-1 concentration at each time point (hr) after oral administration (% of Pre),"[1]; 100 mg/kg p.o., 1 hr",316.9 ± 26.4 % of Pre
same,GLP-1 concentration at each time point (hr) after oral administration (% of Pre),"[1]; 100 mg/kg p.o., 1 hr, listed as phenformin",significantly elevated
same,GLP-1 concentration at each time point (hr) after oral administration (% of Pre),"[1]; 100 mg/kg p.o., 3 hr",330.7 ± 112.4 % of Pre
same,GLP-1 concentration at each time point (hr) after oral administration (% of Pre),"[1]; 100 mg/kg p.o., 3 hr, listed as phenformin",significantly elevated
same,GLP-1 concentration at each time point (hr) after oral administration (% of Pre),"[1]; 100 mg/kg p.o., 5 hr",236.5 ± 20.5 % of Pre
same,GLP-1 concentration at each time point (hr) after oral administration (% of Pre),"[1]; 100 mg/kg p.o., 5 hr, listed as phenformin",significantly elevated
"O=c1[nH]cc(F)c(=O)[nH]1 [Example 5-FU, 5-Fluorouracil]",wet weight of mouse small intestine,BALB/c AnCrj mice; 5-FU 60 mg/kg p.o. for 3 days,significantly decreased
"CC#CCn1c(N2CCNCC2)nc2nc(C#N)n(Cc3ccccc3C#N)c(=O)c21.Cl [Example 229, 7-(2-Butynyl)-1-(2-cyanobenzyl)-6-oxo-8-(piperazin-1-yl)-6,7-dihydro-1H-purine-2-carbonitrile hydrochloride]",GLP-1 concentration 3 hours after oral administration (% of Pre),[2]; 10 mg/kg p.o.,102.5 ± 1.7 % of Pre
"CC#CCn1c(N2CCNCC2)nc2nc(Oc3ccccc3C(N)=O)n(C)c(=O)c21 [Example 122, 2-[7-(2-Butynyl)-1-methyl-6-oxo-8-(piperazin-1-yl)-6,7-dihydro-1H-purin-2-yloxy]benzamide]",IC50,[3]; read-out: IC50,15.3 nM
same,GLP-1 concentration 3 hours after oral administration (% of Pre),[2]; 10 mg/kg p.o.,108.2 ± 6.6 % of Pre
"CC#CCn1c(N2CCCC(N)C2)nc2cnn(C)c(=O)c21.O=C(O)C(F)(F)F (stereo not shown) [Example 120, 2-(3-Aminopiperidin-1-yl)-3-(2-butynyl)-5-methyl-3,5-dihydroimidazo[4,5-d]pyridazin-4-one trifluoroacetate]",GLP-1 concentration 3 hours after oral administration (% of Pre),[2]; 10 mg/kg p.o.,104.8 ± 2.9 % of Pre
"CC#CCn1c(N2CCNCC2)nc2cnn(C)c(=O)c21 [Example 119, 3-(2-Butynyl)-5-methyl-2-(piperazin-1-yl)-3,5-dihydroimidazo[4,5-d]pyridazin-4-one]",IC50,[3]; read-out: IC50,154 nM
same,GLP-1 concentration 3 hours after oral administration (% of Pre),[2]; 10 mg/kg p.o.,98.9 ± 2.2 % of Pre
"CC(C)[C@H](N)C(=O)N1CCCC1 [Val-Pyr, valine pyrrolidide]",Wet weight of small intestine,"BALB/c AnCrj mice; 30 mg/kg p.o. twice a day, 5-FU treatment 60 mg/kg for 3 days, mice",0.637 ± 0.015 g
same,Wet weight of small intestine (g),"BALB/c AnCrj mice; 30 mg/kg p.o. twice a day, 5-FU treatment 60 mg/kg for 3 days, mice, listed as DPPIV inhibitor",no alteration
same,level of insulin during the glucose tolerance test,Zucker fa/fa rats [4],increased significantly
same,Blood glucose level at each time point (hr) after oral glucose administration,Zucker fa/fa rats [4]; 0 hr,110.5 ± 3.3 mg/dL
same,GLP-1 concentration at each time point (hr) after oral glucose administration (% of Pre),Zucker fa/fa rats [4]; 0 hr,119.5 ± 3.6 % of Pre
same,Insulin concentration at each time point (hr) after oral glucose administration,Zucker fa/fa rats [4]; 0 hr,13.1 ± 1.2 ng/mL
same,Blood glucose level at each time point (hr) after oral glucose administration,Zucker fa/fa rats [4]; 0.5 hr,166.0 ± 9.9 mg/dL
same,GLP-1 concentration at each time point (hr) after oral glucose administration (% of Pre),Zucker fa/fa rats [4]; 0.5 hr,217.6 ± 24.6 % of Pre
same,Insulin concentration at each time point (hr) after oral glucose administration,Zucker fa/fa rats [4]; 0.5 hr,32.4 ± 3.2 ng/mL
same,Blood glucose level at each time point (hr) after oral glucose administration,Zucker fa/fa rats [4]; 1 hr,167.1 ± 7.0 mg/dL
same,GLP-1 concentration at each time point (hr) after oral glucose administration (% of Pre),Zucker fa/fa rats [4]; 1 hr,197.5 ± 20.4 % of Pre
same,Insulin concentration at each time point (hr) after oral glucose administration,Zucker fa/fa rats [4]; 1 hr,27.7 ± 5.0 ng/mL
same,Blood glucose level at each time point (hr) after oral glucose administration,Zucker fa/fa rats [4]; 2 hr,139.3 ± 3.3 mg/dL
same,GLP-1 concentration at each time point (hr) after oral glucose administration (% of Pre),Zucker fa/fa rats [4]; 2 hr,128.3 ± 5.4 % of Pre
same,Insulin concentration at each time point (hr) after oral glucose administration,Zucker fa/fa rats [4]; 2 hr,14.4 ± 2.6 ng/mL
same,Blood glucose level at each time point (hr) after oral glucose administration,Zucker fa/fa rats [4]; 3 hr,115.1 ± 3.0 mg/dL
same,Blood glucose level at each time point (hr) after oral glucose administration,Zucker fa/fa rats [4]; −0.5 hr,102.6 ± 3.0 mg/dL
same,GLP-1 concentration at each time point (hr) after oral glucose administration (% of Pre),Zucker fa/fa rats [4]; −0.5 hr,100.0 ± 0.0 % of Pre
same,Insulin concentration at each time point (hr) after oral glucose administration,Zucker fa/fa rats [4]; −0.5 hr,8.8 ± 1.1 ng/mL
same,glucose tolerance,Zucker fa/fa rats [4]; glucose tolerance test,improved
same,GLP-1 concentration at each time point (hr) after oral administration (% of Pre),[5]; 0 hr,100 ± 0.0 % of Pre
same,GLP-1 concentration at each time point (hr) after oral administration (% of Pre),[5]; 1 hr,127 ± 6 % of Pre
same,GLP-1 concentration at each time point (hr) after oral administration (% of Pre),[5]; 3 hr,136 ± 20 % of Pre
same,GLP-1 concentration at each time point (hr) after oral administration (% of Pre),[5]; 5 hr,91 ± 2 % of Pre
same,Total food intake for 14 days,Zucker fa/fa rats [6],491.8 ± 11.1 g
same,Weight gain for 14 days,Zucker fa/fa rats [6],60.9 ± 4.4 g
"CC#CCn1c(N2CCNCC2)nc2c1c(=O)[nH]c(=O)n2C [Example 354, 7-(2-Butynyl)-3-methyl-8-(piperazin-1-yl)-3,7-dihydropurine-2,6-dione]",IC50,[3]; IC50 (nM),285 nM
"CC#CCn1c(N2CCNCC2)nc2nc(OC(C)C(=O)OCC)n(C)c(=O)c21 (stereo not shown) [Example 9, Ethyl 2-[7-(2-butynyl)-1-methyl-6-oxo-8-(piperazin-1-yl)-6,7-dihydro-1H-purin-2-yloxy]propionate]",IC50,[3]; read-out: IC50,141 nM
"CC#CCn1c(N2CCNCC2)nc2nc(OCC(=O)OCC)n(C)c(=O)c21 [Example 13, Ethyl[7-(2-butynyl)-1-methyl-6-oxo-8-(piperazin-1-yl)-6,7-dihydro-1H-purin-2-yloxy]acetate]",IC50,[3]; read-out: IC50,125 nM
"CC#CCn1c(N2CCNCC2)nc2c1c(=O)n(CC(=O)c1ccccc1)c(=O)n2CCOCC [Example 413, 7-(2-Butynyl)-3-(2-ethoxyethyl)-1-(2-oxo-2-phenylethyl-8-(piperazin-1-yl)-3,7-dihydropurine-2,6-dione trifluoroacetate]",IC50,[3]; read-out: IC50,1.95 nM
"CC#CCn1c(N2CCNCC2)nc2nc(C(N)=O)n(C)c(=O)c21 [Example 83, 7-(2-Butynyl)-1-methyl-6-oxo-8-(piperazin-1-yl)-6,7-dihydro-1H-purine-2-carboxamide]",IC50,[3]; read-out: IC50,27.4 nM
